Assay results as given in patent publication US20030232063A1, “Aminosulfonic acid compounds for promoting desquamation of the skin” (SOCIETE L'OREAL S.A., priority 2000, published 2003).

Legend:
[1] = tested on: corneodesmosine; test: Degradation of corneodesmosines in acetonic powders of stratum corneum (immunoblotting with antibody G36-19, chemiluminescence); assay type: biochemical, human; conditions: aqueous solution containing 2% of active agent, pH 8.0, 17 h incubation at 30° C., 33 and 46 kD bands, versus control without active agent
Experimental: Method for evaluating desquamation by measuring the degradation of corneodesmosines The ability of aminosulfonic derivatives of formula (I) according to the invention to promote desquamation by degradation of corneodesmosines is studied in this example. […] It is studied by immunoblotting after separation by electrophoresis and transfer onto a membrane. […] The nylon-varnish strips associated with the corneocytes are immersed in 1 ml/cm^2 of acetone in order to detach the corneocytes. The mixture is filtered and then rinsed three times with the same volume of acetone in order to remove all trace of varnish. Finally, the mixture is dried under vacuum: acetonic powders of stratum corneum are thus obtained. The acetonic powders are divided into 1 mg aliquots. 100 μl of the aqueous solutions containing 2% of active agent adjusted to pH 8.0 are added. […] Two incubation times are studied: t=0 and t=17 h. In the latter case, the incubation takes place at 30° C. with stirring. After incubation, the mixtures are centrifuged for 10 minutes at 10 000×g. The supernatant is removed and replaced with 100 μl of 0.0625 M Tris/HCl pH 6.8 Laemmli buffer, 2% SDS, 200 mM DTT, 10% glycerol, which allows the proteins to be extracted. The mixture is boiled for 10 minutes at 100° C. and then ground in a Potter mill. The mixture is centrifuged for 10 minutes at 10 000×g and the supernatant is then collected. It contains the corneodesmosomal proteins. The total proteins are assayed according to the Bradford method (Biorad kit). This allows an adjustment to 0.6 mg/ml of the samples and a real comparison of the treatments. The samples and also a Rainbow (Amersham Pharmacia Biotech) low molecular weight standard at 1⁄3 are separated by electrophoresis on gel containing 12% acrylamide for 30 minutes at 100 V and then for 1 hour at 200 V. After the electrophoresis, the proteins are transferred onto an Immobilon-P membrane (Millipore) for 3 hours at 60 V. The membrane is then incubated for twice 15 minutes in TBS-TL buffer: 25 mM Tris, 0.15M NaCi pH 7.2, 0.05% Tween 20, 0.5% skimmed milk powder, in order to block the non-specific sites. Incubation with the antibody [MUT]-19 at 1/12500 is performed overnight at 4° C. After two rinses of 5 minutes in TBS-TL buffer, the membrane is incubated with a goat anti-mouse IG(H+L) antibody peroxidase conjugate (Biorad) at 1/4000 for 1 hour 30 minutes at ambient temperature. After several rinses of 5 minutes in TBS-TL buffer and then TBS buffer (without milk or Tween), the membrane is incubated for 1 minute in 10 ml of ECL reagent (Amersham Pharmacia Biotech). The chemiluminescence of the corneodesmosine bands is measured with the FluorS Multimager (Biorad). The 33 and 46 kD bands are quantified with the Quantity-one software (Biorad). […] This control takes into account the natural degradation of the corneodesmosines which takes place during the incubation.

[2] = tested on: desmoglein (corneodesmosomal protein); conditions: shown in EP-A2-0,852,949 (Shiseido); cited from earlier work

SMILES | Percentage increase in the degradation of corneodesmosine [1] [%] | Effect on the degradation of desmoglein (in words) [2]
O=S(=O)(O)CCN1CCN(CCS(=O)(=O)O)CC1 [piperazine-1,4-bis(2-ethanesulfonic acid)] | 65 | 
O=S(=O)(O)CC(O)CN1CCN(CC(O)CS(=O)(=O)O)CC1 (stereo not drawn) [piperazine-1,4-bis(2-hydroxypropanesulfonic acid)] | 63 | 
NCC(=O)O [Glycine, reference compound] | 51 | promotes the degradation of desmoglein
O=S(=O)(O)CCCN1CCOCC1 [3-Morpholinopropanesulfonic acid, 3-morpholinopropanesulfonic acid] | 39 | 
O=S(=O)(O)CCN1CCN(CCO)CC1 [4-(2-hydroxyethyl)piperazine-1-ethanesulfonic acid] | 65 | 
